# Test results reported in PMC5526551, “New hydrazonoindolin-2-ones: Synthesis, exploration of the possible anti-proliferative mechanism of action and encapsulation into PLGA microspheres” (PLoS ONE, 2017).
# Tested on: Caspase 3/7 activity in A549 cells
# Test: Apoptosis and caspase 3/7 activity (CaspaseGlo 3/7 luminescence)
# Format: cell-based, human
# Settings: for Increase in caspase 3/7 activity: A549, 10 μM
# Method: Compound 7e was analyzed for apoptosis inducing activity in cancer cells. These studies were carried out using cells derived from human lung (A549).
# Fig 4 A-549 human lung cancer cells were treated with 3.3 and 10 μM 7e over a time course from 2–48 h. Caspase 3/7 activity was measured by a luminescence-based homogenous assay.
# A549 cells were harvested from a 90% confluent 10 cm dish and diluted in growth medium. An appropriate concentration of cells were prepared to add 1,250 cells in a volume of 25 µL per well in tissue culture treated Corning 384-well microplates, then incubated overnight at 37°C. A single cluster of four wells containing no cells was included to serve as a background (no cell) control. Compound 7e was diluted in DMSO to concentrations […].
# Concentrated dosing solutions of twice the final concentration were prepared by dilution of the DMSO stocks 1:500 in growth media. Three-fold dilutions of each dosing medium was then prepared in medium containing 0.2% DMSO to maintain a constant concentration of vehicle throughout the concentration range of the compound. Each of these was added in equal volume (25 µL) to four wells on each cell assay plate, along with the vehicle control. Cells were incubated with the compounds for a further 48 h. After 24 h, a separate group of cells was treated identically for 24 h. Likewise, groups of cells were treated for durations of 16, 8, 4 and 2 h.
# At the end of the treatment period, assay plates were allowed to cool to RT for 10 min prior to addition of 25 µL per well Promega CaspaseGlo 3/7 reagent, followed by an additional 10 min incubation at RT. The resulting luminescence was quantitated using a Molecular Devices Spectramax Paradigm.
# The average mean value of the background “no cell” control sample wells were subtracted from all vehicle and test compound wells.Fold-change in caspase activity was then calculated by dividing the mean sample value for each treatment time point by the mean vehicle value for the corresponding time.
structure (smiles),measurement,setting,value
"O=C1Nc2ccc(Br)cc2C1=NN=C1C(=O)N(Cc2ccccc2)c2ccccc21 [Compound 7e, 1-Benzyl-3-((5-bromo-2-oxoindolin-3-ylidene)hydrazono)indolin-2-one]",Increase in caspase 3/7 activity,4 h,2.4 fold
same,Increase in caspase 3/7 activity,8 h,1.85 fold
same,Effect on caspase 3/7 activity,"A549, lower tested concentration (3.3 μM)",no effect
